Assay results from patent US8471005B2 (Cephalon, Inc., priority 2008, dated 2013).
Like-named read-outs stand apart in the source and are kept apart here.

How the values were obtained:
ALK = target: T1, ALK (Homo sapiens, UniProt Q9UM73); experiment: ALK Kinase Assay (ELISA/TRF, PLC-γ substrate); type: biochemical; settings: read-out: ALK Potency
T1 construct: host or cells: baculovirus expression system
Outline: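 PLC-γ substrate coated at 10 μg/mL in TBS; reaction started with 30 ng/ml ALK, run 15 min at 37° C. Phosphoproduct detected by TRF with Eu-N1-labeled PT66 anti-phosphotyrosine antibody. IC50 from sigmoidal variable-slope fit of percent inhibition versus log concentration.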

JAK2 = target: T2, JAK2 (Homo sapiens, UniProt O60674); experiment: Recombinant Human JAK2 Kinase Assay (TRF); type: biochemical; settings: read-out: JAK2 Potency
T2 construct: host or cells: baculovirus expression system
T2 sequence (O60674 whole entry): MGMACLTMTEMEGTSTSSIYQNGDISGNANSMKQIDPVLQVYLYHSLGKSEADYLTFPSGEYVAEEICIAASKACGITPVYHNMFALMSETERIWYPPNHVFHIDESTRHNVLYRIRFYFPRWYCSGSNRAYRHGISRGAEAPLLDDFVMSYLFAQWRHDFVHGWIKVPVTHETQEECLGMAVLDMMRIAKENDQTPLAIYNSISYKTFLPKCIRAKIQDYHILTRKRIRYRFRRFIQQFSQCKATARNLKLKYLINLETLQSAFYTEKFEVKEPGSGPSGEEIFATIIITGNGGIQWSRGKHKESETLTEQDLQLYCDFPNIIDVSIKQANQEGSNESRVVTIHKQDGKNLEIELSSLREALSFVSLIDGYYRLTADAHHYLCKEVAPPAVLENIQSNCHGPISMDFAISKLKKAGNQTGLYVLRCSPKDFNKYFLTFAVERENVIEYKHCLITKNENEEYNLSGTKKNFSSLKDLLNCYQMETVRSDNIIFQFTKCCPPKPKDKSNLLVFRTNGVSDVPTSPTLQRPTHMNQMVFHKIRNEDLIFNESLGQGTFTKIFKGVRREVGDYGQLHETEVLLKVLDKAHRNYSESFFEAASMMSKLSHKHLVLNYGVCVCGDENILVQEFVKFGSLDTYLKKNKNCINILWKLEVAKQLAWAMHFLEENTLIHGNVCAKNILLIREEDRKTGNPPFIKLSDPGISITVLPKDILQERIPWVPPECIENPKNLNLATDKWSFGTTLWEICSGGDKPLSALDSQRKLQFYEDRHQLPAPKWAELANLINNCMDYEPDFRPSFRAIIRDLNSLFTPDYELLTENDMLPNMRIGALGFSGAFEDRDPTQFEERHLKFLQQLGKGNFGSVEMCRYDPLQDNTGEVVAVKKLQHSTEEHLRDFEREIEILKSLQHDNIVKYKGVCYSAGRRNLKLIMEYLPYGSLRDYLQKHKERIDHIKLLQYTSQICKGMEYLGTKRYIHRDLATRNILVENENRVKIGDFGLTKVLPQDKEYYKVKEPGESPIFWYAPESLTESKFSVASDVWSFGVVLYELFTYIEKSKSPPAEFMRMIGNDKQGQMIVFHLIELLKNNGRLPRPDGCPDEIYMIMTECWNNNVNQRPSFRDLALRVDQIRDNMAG
Outline: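 Baculovirus-expressed JAK2 (15 ng/ml) phosphorylated a biotinylated 15-mer peptide captured on Neutravidin, in 20 mM HEPES pH 7.2, 0.2 μM ATP, 1 mM MnCl2, 0.1% BSA, 2.5% DMSO final, 20 min at room temperature. Phosphoproduct detected by time-resolved fluorescence with Eu-N1-labelled PY100 antibody.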

[1] = ALK kinase inhibition, 1 μM ATP
[2] = JAK2 kinase inhibition, 0.2 μM ATP

T1 sequence (Q9UM73 19-1620): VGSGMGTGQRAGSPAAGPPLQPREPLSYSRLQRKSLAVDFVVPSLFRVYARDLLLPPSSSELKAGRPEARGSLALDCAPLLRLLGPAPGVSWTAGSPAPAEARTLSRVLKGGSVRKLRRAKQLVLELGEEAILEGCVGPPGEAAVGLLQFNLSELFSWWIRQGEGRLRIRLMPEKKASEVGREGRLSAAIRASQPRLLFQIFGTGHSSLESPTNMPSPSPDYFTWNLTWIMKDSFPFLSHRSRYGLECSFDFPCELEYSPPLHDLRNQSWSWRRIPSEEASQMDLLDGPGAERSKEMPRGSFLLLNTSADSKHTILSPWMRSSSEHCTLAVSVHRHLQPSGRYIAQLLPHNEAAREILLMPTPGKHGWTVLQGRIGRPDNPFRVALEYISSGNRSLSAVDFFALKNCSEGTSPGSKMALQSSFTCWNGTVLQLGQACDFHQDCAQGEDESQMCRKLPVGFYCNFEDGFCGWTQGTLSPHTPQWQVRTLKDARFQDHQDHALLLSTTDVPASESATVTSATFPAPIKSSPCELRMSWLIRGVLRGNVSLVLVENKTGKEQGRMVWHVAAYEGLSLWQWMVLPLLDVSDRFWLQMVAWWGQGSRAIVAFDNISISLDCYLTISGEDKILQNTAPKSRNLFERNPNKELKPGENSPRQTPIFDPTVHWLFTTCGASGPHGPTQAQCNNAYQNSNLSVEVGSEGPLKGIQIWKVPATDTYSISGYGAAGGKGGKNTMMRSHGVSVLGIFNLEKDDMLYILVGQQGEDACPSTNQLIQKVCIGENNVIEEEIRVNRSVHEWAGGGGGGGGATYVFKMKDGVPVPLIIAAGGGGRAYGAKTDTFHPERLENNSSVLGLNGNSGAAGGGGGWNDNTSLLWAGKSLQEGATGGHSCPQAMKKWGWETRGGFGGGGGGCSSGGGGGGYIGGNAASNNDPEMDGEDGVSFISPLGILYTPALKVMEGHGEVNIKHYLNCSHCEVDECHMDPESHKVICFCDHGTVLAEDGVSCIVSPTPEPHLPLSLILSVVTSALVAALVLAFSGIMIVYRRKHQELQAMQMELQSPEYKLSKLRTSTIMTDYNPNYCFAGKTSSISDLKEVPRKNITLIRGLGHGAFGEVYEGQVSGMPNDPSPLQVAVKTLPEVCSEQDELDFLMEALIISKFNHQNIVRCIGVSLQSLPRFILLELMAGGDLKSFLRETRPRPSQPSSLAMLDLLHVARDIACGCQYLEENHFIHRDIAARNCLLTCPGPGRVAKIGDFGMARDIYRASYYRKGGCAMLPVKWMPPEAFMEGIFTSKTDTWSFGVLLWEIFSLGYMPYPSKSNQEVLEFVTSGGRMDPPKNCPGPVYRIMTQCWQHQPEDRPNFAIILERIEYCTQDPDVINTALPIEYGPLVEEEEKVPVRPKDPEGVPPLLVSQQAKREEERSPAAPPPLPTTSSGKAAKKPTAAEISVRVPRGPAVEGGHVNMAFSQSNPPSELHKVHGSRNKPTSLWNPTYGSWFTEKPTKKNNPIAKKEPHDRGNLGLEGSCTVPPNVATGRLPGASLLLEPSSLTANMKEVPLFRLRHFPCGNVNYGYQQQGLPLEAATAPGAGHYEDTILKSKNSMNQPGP

| Molecule | IC50 (ALK; [1]) | IC50 (JAK2; [2]) | IC50 (ALK; ALK Kinase Inhibition) | IC50 (JAK2; JAK2 Kinase Inhibition) |
| --- | --- | --- | --- | --- |
| CN(c1ccccc1-c1ccc2cnc(Nc3ccc(N4CCOCC4)cc3F)nn12)S(C)(=O)=O [Example 386, N-{2-[2-(2-Fluoro-4-morpholin-4-yl-phenylamino)-pyrrolo[2,1-f][1,2,4]triazin-7-yl]-phenyl}-N-methyl-methanesulfonamide] | – | – | 100 to 1000 nM | < 100 nM |
| N-[2-(2-{4-[4-(2-Hydroxy-ethylamino)-piperidin-1-yl]-2-methoxy-phenylamino}-pyrrolo[2,1-f][1,2,4]triazin-7-yl)-phenyl]-N-methyl-methanesulfonamide [Example 798] | < 100 nM | 100 to 1000 nM | – | – |
| COc1cc(Nc2ncc3ccc(-c4cccc(Cl)c4)n3n2)ccc1N1CCN(C)CC1 [Example 64, [7-(3-Chloro-phenyl)-pyrrolo[2,1-f][1,2,4]triazin-2-yl]-[3-methoxy-4-(4-methyl-piperazin-1-yl)-phenyl]-amine] | – | – | < 100 nM | < 100 nM |
| Clc1cccc(-c2ccc3cnc(-n4cnc5cnccc54)nn23)c1 [Example 324, 1-[7-(3-Chloro-phenyl)-pyrrolo[2,1-f][1,2,4]triazin-2-yl]-1H-imidazo[4,5-c]pyridine] | – | – | 1000 to 10000 nM | 1000 to 10000 nM |
| COc1ccccc1-c1ccc2cnc(Nc3cccc(C(=O)N4CCOCC4)c3)nn12 [Example 327, {3-[7-(2-Methoxy-phenyl)-pyrrolo[2,1-f][1,2,4]triazin-2-ylamino]-phenyl}-morpholin-4-yl-methanone] | – | – | 1000 to 10000 nM | < 100 nM |
| CN(C)S(=O)(=O)c1ccc(-c2ccc3cnc(Nc4ccc(N5CCCCC5)cc4)nn23)cc1 [Example 86, N,N-Dimethyl-4-[2-(4-piperidin-1-yl-phenylamino)-pyrrolo[2,1-f][1,2,4]triazin-7-yl]-benzenesulfonamide] | – | – | > 10000 nM | < 100 nM |
| O=C(NCCN1CCOCC1)c1ccc(-c2ccc3cnc(Nc4ccc(N5CCOCC5)cc4)nn23)cc1 [Example 56, N-(2-Morpholin-4-yl-ethyl)-4-[2-(4-morpholin-4-yl-phenylamino)-pyrrolo[2,1-f][1,2,4]triazin-7-yl]-benzamide] | – | – | 1000 to 10000 nM | < 100 nM |
| CN(c1ccccc1-c1ccc2cnc(Nc3ccc(F)c(N4CCOCC4)c3)nn12)S(C)(=O)=O [Example 388, N-{2-[2-(4-Fluoro-3-morpholin-4-yl-phenylamino)-pyrrolo[2,1-f][1,2,4]triazin-7-yl]-phenyl}-N-methyl-methanesulfonamide] | – | – | 100 to 1000 nM | < 100 nM |
| O=C(c1cccc(Nc2ncc3ccc(-c4cccc(Cl)c4)n3n2)c1)N1CCOCC1 [Example 329, {3-[7-(3-Chloro-phenyl)-pyrrolo[2,1-f][1,2,4]triazin-2-ylamino]-phenyl}-morpholin-4-yl-methanone] | – | – | 100 to 1000 nM | < 100 nM |
| c1cncc(-c2ccc3cnc(Nc4cccc(N5CCOCC5)c4)nn23)c1 [Example 309, (3-Morpholin-4-yl-phenyl)-(7-pyridin-3-yl-pyrrolo[2,1-f][1,2,4]triazin-2-yl)-amine] | – | – | 1000 to 10000 nM | < 100 nM |
| Clc1cccc(-c2ccc3cnc(Nc4cccc(N5CCOCC5)c4)nn23)c1 [Example 148, [7-(3-Chloro-phenyl)-pyrrolo[2,1-f][1,2,4]triazin-2-yl]-(3-morpholin-4-yl-phenyl)-amine] | – | – | 1000 to 10000 nM | < 100 nM |
| CS(=O)(=O)c1ccc(-c2ccc3cnc(Nc4ccc(N5CCC(CO)CC5)cc4)nn23)cc1 [Example 87, (1-{4-[7-(4-Methanesulfonyl-phenyl)-pyrrolo[2,1-f][1,2,4]triazin-2-ylamino]-phenyl}-piperidin-4-yl)-methanol] | – | – | 1000 to 10000 nM | < 100 nM |

Now from value to molecule:

| IC50 (ALK; [1]) | IC50 (JAK2; [2]) | IC50 (ALK; ALK Kinase Inhibition) | IC50 (JAK2; JAK2 Kinase Inhibition) | Molecule |
| --- | --- | --- | --- | --- |
| 1000 to 10000 nM | < 100 nM | – | – | CC(=O)N1CCc2ccc(Nc3ncc4ccc(-c5cccc(S(=O)(=O)N6CC[C@H](O)C6)c5)n4n3)cc21 [Example 885, 1-(6-{7-[3-((S)-3-Hydroxy-pyrrolidine-1-sulfonyl)-phenyl]-pyrrolo[2,1-f][1,2,4]triazin-2-ylamino}-2,3-dihydro-indol-1-yl)-ethanone] |
| < 100 nM | 100 to 1000 nM | – | – | COc1cc(N2CCC(N(C)C)CC2)ccc1Nc1ncc2ccc(-c3ccccc3N(C)S(C)(=O)=O)n2n1 [Example 475, N-(2-{2-[4-(4-Dimethylamino-piperidin-1-yl)-2-methoxy-phenylamino]-pyrrolo[2,1-f][1,2,4]triazin-7-yl}-phenyl)-N-methyl-methanesulfonamide] |
| 1000 to 10000 nM | > 10000 nM | – | – | COc1ccc(C(=O)N2CCN(C)CC2)cc1Nc1ncc2ccc(-c3ccccc3OC)n2n1 [Example 494, {4-Methoxy-3-[7-(2-methoxy-phenyl)-pyrrolo[2,1-f][1,2,4]triazin-2-ylamino]-phenyl}-(4-methyl-piperazin-1-yl)-methanone] |
| < 100 nM | < 100 nM | – | – | CN1CCN(c2ccc(Nc3ncc4ccc(Cc5ccccc5)n4n3)cc2)CC1 [Example 1140, (7-Benzyl-pyrrolo[2,1-f][1,2,4]triazin-2-yl)-[4-(4-methyl-piperazin-1-yl)-phenyl]-amine] |
| < 100 nM | 100 to 1000 nM | – | – | COc1cc(C2CCNCC2)ccc1Nc1ncc2ccc(-c3ccc(C)cc3N(C)S(C)(=O)=O)n2n1 [Example 1281, N-{2-[2-(2-Methoxy-4-piperidin-4-yl-phenylamino)-pyrrolo[2,1-f][1,2,4]triazin-7-yl]-5-methyl-phenyl}-N-methyl-methanesulfonamide] |
| – | – | < 100 nM | 100 to 1000 nM | COc1cc(N2CCN(C[C@H](C)O)CC2)c(F)cc1Nc1ncc2ccc(-c3ccccc3N(C)S(C)(=O)=O)n2n1 [Example 1479, N-[2-(2-{5-Fluoro-4-[4-((S)-2-hydroxy-propyl)-piperazin-1-yl]-2-methoxy-phenylamino}-pyrrolo[2,1-f][1,2,4]triazin-7-yl)-phenyl]-N-methyl-methanesulfonamide] |
| < 100 nM | 100 to 1000 nM | – | – | COc1cc(CCN2CCOCC2)ccc1Nc1ncc2ccc(-c3ccccc3OC)n2n1 [Example 492, [2-Methoxy-4-(2-morpholin-4-yl-ethyl)-phenyl]-[7-(2-methoxy-phenyl)-pyrrolo[2,1-f][1,2,4]triazin-2-yl]-amine] |
| < 100 nM | 1000 to 10000 nM | – | – | COc1ccc(-c2ccc3cnc(Nc4ccc(C5CCN(CC(N)=O)CC5)cc4OC)nn23)c(OC)c1 [Example 745, 2-(4-{4-[7-(2,4-Dimethoxy-phenyl)-pyrrolo[2,1-f][1,2,4]triazin-2-ylamino]-3-methoxy-phenyl}-piperidin-1-yl)-acetamide] |
| – | – | 100 to 1000 nM | < 100 nM | COc1ccc(Nc2ncc3ccc(-c4cccc(NS(C)(=O)=O)c4)n3n2)cc1N1CCOCC1 [Example 395, N-{3-[2-(4-Methoxy-3-morpholin-4-yl-phenylamino)-pyrrolo[2,1-f][1,2,4]triazin-7-yl]-phenyl}-methanesulfonamide] |
| < 100 nM | < 100 nM | – | – | COc1cc(C2CCN(C)CC2OC)ccc1Nc1ncc2ccc(-c3ccccc3OC)n2n1 (racemic) [Example 859, (±)-[2-Methoxy-4-(3-methoxy-1-methyl-piperidin-4-yl)-phenyl]-[7-(2-methoxy-phenyl)-pyrrolo[2,1-f][1,2,4]triazin-2-yl]-amine] |
| 1000 to 10000 nM | < 100 nM | – | – | Cc1cc(-c2ccc3cnc(Nc4ccc(N5CCOCC5)cc4)nn23)cnc1F [Example 1047, [7-(6-Fluoro-5-methyl-pyridin-3-yl)-pyrrolo[2,1-f][1,2,4]triazin-2-yl]-(4-morpholin-4-yl-phenyl)-amine] |
| > 10000 nM | < 100 nM | – | – | COc1ccc(-c2ccc3cnc(Nc4cccc(C5C(=O)N(C)CCN5C)c4)nn23)cn1 (stereo not shown) [Example 1081, 3-{3-[7-(6-Methoxy-pyridin-3-yl)-pyrrolo[2,1-f][1,2,4]triazin-2-ylamino]-phenyl}-1,4-dimethyl-piperazin-2-one] |
| – | – | 100 to 1000 nM | < 100 nM | CN1CCN(C)C(c2ccc(Nc3ncc4ccc(-c5cccc(S(=O)(=O)NC(C)(C)C)c5)n4n3)cc2)C1 (stereo not shown) [Example 1567, N-tert-Butyl-3-{2-[4-(1,4-dimethyl-piperazin-2-yl)-phenylamino]-pyrrolo[2,1-f][1,2,4]triazin-7-yl}-benzenesulfonamide] |
| < 100 nM | 1000 to 10000 nM | – | – | COc1cc(C2CCN(C(=O)C3CCN3)CC2)ccc1Nc1ncc2ccc(-c3ccccc3N(C)S(C)(=O)=O)n2n1 (racemic) [Example 863, (±)-N-[2-(2-{4-[1-(Azetidine-2-carbonyl)-piperidin-4-yl]-2-methoxy-phenylamino}-pyrrolo[2,1-f][1,2,4]triazin-7-yl)-phenyl]-N-methyl-methanesulfonamide] |
| < 100 nM | < 100 nM | – | – | CN1CCC(c2ccc(Nc3ncc4ccc(-c5cccc(Cl)c5)n4n3)cc2)CC1 [Example 1131, [7-(3-Chloro-phenyl)-pyrrolo[2,1-f][1,2,4]triazin-2-yl]-[4-(1-methyl-piperidin-4-yl)-phenyl]-amine] |
| < 100 nM | < 100 nM | – | – | COc1cc(N2CCN(C[C@H](C)O)CC2)ccc1Nc1ncc2ccc(-c3cc(Cl)ccc3OC)n2n1 [Example 755, (S)-1-(4-{4-[7-(5-Chloro-2-methoxy-phenyl)-pyrrolo[2,1-f][1,2,4]triazin-2-ylamino]-3-methoxy-phenyl}-piperazin-1-yl)-propan-2-ol] |
| 1000 to 10000 nM | < 100 nM | – | – | CN1CCN(C)C(c2cccc(Nc3ncc4ccc(-c5ccccc5N(C)S(C)(=O)=O)n4n3)c2)C1=O (stereo not shown) [Example 1083, N-(2-{2-[3-(1,4-Dimethyl-3-oxo-piperazin-2-yl)-phenylamino]-pyrrolo[2,1-f][1,2,4]triazin-7-yl}-phenyl)-N-methyl-methanesulfonamide] |
